From ChEMBL document CHEMBL1201862, “PubChem BioAssay data set” (2004)
Values belong to the molecule of their own block, whether it stands above or below them. Activity calls are given as the source filed them.

How the values were obtained:
[1] = target: Protein disulfide-isomerase (Homo sapiens, UniProt P07237); experiment: inhibition of PDI-mediated insulin reduction – biochemical, turbidity, dry powder samples, set 2, confirmation (AID 652146)
[2] = target: C-X-C chemokine receptor type 4 (Homo sapiens, UniProt P61073); experiment: SAR analysis of small molecule antagonists of the CXCR6 receptor using a CXCR4 receptor luminescent beta-arrestin counterscreen.; type: functional
Chain of C-X-C chemokine receptor type 4 (P61073 whole entry): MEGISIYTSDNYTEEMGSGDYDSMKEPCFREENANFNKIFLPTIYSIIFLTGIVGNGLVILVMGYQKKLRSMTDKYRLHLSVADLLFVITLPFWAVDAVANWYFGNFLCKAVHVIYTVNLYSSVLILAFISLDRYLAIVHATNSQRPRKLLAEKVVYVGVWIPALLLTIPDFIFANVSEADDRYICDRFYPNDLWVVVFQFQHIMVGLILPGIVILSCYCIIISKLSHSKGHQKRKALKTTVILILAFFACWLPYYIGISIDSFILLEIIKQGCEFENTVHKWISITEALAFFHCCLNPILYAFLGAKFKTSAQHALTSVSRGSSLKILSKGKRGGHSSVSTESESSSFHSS

[3] = target: C-C chemokine receptor type 6 (Homo sapiens, UniProt P51684); experiment: SAR analysis of small molecule antagonists of the CXCR6 receptor using a CCR6 receptor luminescent beta-arrestin counterscreen.; type: functional
Chain of C-C chemokine receptor type 6 (P51684 whole entry): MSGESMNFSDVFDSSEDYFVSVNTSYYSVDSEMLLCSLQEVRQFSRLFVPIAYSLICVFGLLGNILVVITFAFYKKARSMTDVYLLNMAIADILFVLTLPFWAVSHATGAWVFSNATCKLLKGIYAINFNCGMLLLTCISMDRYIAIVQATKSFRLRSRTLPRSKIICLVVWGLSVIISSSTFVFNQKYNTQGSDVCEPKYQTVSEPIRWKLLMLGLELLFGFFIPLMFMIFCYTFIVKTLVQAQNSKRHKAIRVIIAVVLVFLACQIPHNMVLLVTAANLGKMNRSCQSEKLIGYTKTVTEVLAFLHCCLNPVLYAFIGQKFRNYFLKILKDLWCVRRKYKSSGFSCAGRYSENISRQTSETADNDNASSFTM

[4] = CTGF mRNA reduction in DLD1 cells – cell-based, DLD1 colon cancer, RT-qPCR, cherry-pick, dose response (AID 1053122); type: functional; conditions: Cancer cell lines
[5] = YAP1 overexpression rescue of CTGF inhibition – DLD1 cells, RT-qPCR, cherry-pick, mechanism study for YAP1 pathway inhibitor project, dose response (AID 1053127); type: functional, cell-based; conditions: DLD-1
[6] = viability loss in HepG2 liver cells – cell-based, ATP luminescence, cherry-pick, set 6, cytotoxicity control, dose response (AID 1053125); type: functional
[7] = target: 1-phosphatidylinositol 4,5-bisphosphate phosphodiesterase gamma-1 (Homo sapiens, UniProt P19174); experiment: Counterscreen for inhibitors of phospholipase C isozymes (PLC-B3): Fluorescence-based biochemical high throughput dose response assay to identify inhibitors of phospholipase C isozymes (PLC-gamma1).
Chain of 1-phosphatidylinositol 4,5-bisphosphate phosphodiesterase gamma-1 (P19174 whole entry): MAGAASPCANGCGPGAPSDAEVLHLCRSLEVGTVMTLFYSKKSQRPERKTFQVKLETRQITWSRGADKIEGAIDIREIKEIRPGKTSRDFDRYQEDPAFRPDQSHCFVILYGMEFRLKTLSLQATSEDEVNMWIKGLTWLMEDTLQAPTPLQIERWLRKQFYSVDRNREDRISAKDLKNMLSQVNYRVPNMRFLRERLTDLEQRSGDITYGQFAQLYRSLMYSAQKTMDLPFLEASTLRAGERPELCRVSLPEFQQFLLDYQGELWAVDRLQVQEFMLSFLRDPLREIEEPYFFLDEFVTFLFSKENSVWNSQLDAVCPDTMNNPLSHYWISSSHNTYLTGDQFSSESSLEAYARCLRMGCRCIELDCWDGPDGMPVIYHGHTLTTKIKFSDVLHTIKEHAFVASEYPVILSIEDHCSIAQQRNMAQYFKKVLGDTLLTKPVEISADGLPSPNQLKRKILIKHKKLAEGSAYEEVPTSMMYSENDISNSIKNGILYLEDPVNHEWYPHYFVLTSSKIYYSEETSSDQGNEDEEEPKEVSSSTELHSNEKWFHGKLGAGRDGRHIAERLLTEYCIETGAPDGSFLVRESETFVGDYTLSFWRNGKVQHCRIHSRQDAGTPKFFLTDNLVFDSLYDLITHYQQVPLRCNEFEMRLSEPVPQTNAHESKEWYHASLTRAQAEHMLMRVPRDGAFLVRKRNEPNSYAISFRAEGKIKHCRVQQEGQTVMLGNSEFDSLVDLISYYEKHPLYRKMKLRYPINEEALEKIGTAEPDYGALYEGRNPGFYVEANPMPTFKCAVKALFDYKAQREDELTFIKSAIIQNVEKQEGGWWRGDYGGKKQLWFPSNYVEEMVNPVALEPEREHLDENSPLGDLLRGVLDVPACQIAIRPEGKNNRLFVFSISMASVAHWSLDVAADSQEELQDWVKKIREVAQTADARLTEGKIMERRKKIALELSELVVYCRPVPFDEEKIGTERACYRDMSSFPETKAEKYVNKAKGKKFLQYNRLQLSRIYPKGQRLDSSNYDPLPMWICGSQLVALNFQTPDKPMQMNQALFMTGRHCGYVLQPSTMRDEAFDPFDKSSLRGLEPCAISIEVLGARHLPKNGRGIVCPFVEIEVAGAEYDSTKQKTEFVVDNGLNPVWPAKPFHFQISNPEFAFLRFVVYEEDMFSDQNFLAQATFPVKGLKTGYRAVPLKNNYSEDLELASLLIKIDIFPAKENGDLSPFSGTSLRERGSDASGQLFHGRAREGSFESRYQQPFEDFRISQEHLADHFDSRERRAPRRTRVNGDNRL

Coagulation factor XII = target: T1, Coagulation factor XII (Homo sapiens, UniProt P00748); type: functional;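 also: activated factor XIIa alpha cleaving a fluorogenic AMC peptide substrate; inhibitor potency from loss of enzyme activity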
T1 sequence (P00748 whole entry): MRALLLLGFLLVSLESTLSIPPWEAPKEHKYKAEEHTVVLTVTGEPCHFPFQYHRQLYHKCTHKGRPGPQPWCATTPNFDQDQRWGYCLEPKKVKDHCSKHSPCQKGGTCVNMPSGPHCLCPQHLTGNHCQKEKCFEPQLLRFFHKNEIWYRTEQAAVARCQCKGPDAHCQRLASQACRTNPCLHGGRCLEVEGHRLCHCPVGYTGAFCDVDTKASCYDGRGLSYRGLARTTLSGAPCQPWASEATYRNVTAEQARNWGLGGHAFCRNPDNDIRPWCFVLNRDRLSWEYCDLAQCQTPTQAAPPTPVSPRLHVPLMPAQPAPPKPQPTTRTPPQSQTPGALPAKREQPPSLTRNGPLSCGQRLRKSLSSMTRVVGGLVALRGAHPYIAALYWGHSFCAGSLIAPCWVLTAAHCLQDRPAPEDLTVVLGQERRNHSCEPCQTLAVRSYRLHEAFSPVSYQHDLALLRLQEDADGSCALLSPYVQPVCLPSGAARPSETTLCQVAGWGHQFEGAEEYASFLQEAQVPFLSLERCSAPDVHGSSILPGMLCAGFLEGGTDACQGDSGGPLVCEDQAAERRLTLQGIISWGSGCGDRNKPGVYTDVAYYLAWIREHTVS

[8] = target: 1-phosphatidylinositol 4,5-bisphosphate phosphodiesterase beta-3 (Homo sapiens, UniProt Q01970); experiment: Fluorescence-based biochemical high throughput dose response assay to identify inhibitors of phospholipase C isozymes (PLC-B3).
Chain of 1-phosphatidylinositol 4,5-bisphosphate phosphodiesterase beta-3 (Q01970 whole entry): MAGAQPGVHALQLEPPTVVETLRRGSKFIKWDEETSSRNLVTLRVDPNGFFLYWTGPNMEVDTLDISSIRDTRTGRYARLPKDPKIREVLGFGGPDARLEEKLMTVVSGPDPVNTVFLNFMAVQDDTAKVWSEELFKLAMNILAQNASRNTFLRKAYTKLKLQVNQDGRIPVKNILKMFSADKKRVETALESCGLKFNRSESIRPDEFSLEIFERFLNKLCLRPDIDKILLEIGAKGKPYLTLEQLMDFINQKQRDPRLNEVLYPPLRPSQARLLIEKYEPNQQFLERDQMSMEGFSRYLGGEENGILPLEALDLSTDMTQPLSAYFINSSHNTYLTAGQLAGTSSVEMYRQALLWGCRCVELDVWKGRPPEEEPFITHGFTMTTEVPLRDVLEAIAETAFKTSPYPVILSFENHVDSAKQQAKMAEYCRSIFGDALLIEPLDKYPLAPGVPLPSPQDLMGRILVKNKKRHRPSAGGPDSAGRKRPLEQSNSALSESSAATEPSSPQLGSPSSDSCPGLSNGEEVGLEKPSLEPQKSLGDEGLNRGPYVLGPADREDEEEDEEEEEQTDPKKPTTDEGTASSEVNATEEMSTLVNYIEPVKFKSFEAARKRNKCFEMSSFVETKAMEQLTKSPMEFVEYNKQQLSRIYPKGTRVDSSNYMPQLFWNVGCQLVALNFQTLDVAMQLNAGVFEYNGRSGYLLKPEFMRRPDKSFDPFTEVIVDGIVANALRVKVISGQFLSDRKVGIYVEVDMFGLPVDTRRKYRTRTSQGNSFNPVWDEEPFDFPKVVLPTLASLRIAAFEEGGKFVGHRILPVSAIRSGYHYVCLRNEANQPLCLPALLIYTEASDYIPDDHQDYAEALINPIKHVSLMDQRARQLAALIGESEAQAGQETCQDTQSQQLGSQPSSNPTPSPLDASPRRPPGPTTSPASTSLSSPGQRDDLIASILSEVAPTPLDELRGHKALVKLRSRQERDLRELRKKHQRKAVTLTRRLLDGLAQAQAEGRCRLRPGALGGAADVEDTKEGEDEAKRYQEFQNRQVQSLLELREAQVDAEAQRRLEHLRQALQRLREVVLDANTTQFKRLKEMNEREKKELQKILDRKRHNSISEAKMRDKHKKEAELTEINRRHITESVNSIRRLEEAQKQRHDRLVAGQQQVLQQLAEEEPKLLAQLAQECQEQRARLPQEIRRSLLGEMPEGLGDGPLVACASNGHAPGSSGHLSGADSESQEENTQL

[9] = suppression of HIF-dependent reporter luminescence – cell-based, dry powder samples, 2158-07, ARNT-TACC3 inhibitor project, dose response (AID 720561); type: functional
[10] = target: NAD-dependent protein deacylase sirtuin-5, mitochondrial (Homo sapiens, UniProt Q9NXA8); experiment: blockers of sirtuin-5 peptide desuccinylation – biochemical, fluorescence imaging, cherry-pick, set 6, dose response (AID 720597)
Chain of NAD-dependent protein deacylase sirtuin-5, mitochondrial (Q9NXA8 whole entry, the tested form may be a part): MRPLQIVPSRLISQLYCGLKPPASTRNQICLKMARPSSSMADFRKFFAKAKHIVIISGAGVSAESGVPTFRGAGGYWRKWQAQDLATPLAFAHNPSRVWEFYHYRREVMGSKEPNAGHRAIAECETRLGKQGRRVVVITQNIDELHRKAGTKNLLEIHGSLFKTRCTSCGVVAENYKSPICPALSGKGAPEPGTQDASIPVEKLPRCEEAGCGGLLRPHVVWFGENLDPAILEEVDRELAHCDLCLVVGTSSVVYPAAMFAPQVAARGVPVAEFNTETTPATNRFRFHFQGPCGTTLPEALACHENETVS

[11] = target: Oxysterols receptor LXR-beta (Homo sapiens, UniProt P55055); type: functional, cell-based;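 also: Cell-based luminescence dose-response assay of agonist activity at LXR, run as a confirmatory counterscreen to a daf-12 agonist screen; HEK293 cells with Gal4-LXR fusion and GAL4-driven luciferase reporter; agonist potency from rising luciferase signal of a Gal4-LXR reporter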
Chain of Oxysterols receptor LXR-beta (P55055 whole entry, the tested form may be a part): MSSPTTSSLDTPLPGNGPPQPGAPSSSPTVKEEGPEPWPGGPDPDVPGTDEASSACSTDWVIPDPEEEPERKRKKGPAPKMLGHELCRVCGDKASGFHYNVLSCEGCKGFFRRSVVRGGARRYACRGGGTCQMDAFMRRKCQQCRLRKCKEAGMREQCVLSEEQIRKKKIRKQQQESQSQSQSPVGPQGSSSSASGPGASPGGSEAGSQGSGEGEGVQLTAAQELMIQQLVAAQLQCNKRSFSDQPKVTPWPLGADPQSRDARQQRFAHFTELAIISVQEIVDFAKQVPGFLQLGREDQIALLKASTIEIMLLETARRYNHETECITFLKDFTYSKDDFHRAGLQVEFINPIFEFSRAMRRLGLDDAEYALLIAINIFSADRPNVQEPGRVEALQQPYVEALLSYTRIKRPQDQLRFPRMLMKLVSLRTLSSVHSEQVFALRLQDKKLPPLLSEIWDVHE

Chain of Protein disulfide-isomerase (P07237 whole entry): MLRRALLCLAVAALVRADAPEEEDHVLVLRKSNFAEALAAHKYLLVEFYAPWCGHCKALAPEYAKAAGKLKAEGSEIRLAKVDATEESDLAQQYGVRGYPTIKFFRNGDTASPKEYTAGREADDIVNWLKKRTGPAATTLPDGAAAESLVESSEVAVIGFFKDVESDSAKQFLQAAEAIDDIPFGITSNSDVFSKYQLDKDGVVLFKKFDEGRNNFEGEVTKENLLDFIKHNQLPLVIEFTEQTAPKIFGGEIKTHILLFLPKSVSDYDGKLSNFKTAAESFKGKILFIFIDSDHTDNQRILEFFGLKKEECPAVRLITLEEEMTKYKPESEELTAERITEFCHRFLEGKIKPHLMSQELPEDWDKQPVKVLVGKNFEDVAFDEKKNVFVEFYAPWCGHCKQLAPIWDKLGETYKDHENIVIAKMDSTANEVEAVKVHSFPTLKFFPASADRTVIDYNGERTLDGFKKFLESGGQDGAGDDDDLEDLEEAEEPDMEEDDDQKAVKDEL

AC50 [1]: 3 µM (active)
Structure (SMILES): CCOC(=O)C1(CCOc2ccccc2)CCN(C(=O)c2ccc(O)c(Cl)c2)CC1

Structure (SMILES): COc1cc(C(=O)NC2CC3CCCC(C2)N3CC(=O)Nc2ccc(F)cc2)cc(OC)c1OC (stereo not drawn)
IC50 [2]: > 79 µM (inactive)
IC50 [3]: > 79 µM (inactive)

Structure (SMILES): CO[C@@H](CN(C)S(=O)(=O)c1ccc(C)cc1)[C@H](C)CN([C@H](C)CO)S(=O)(=O)c1cccc(Cl)c1
AC50 [4]: 4.99 µM (active)
AC50 [5]: 4.83 µM (active)

Structure (SMILES): CC(=O)/N=c1\c(C#N)cc2c(=O)n3ccccc3nc2n1CCCOC(C)C
AC50 [6]: > 52 µM (inactive)

IC50 [7]: 50.8 µM (inactive)
IC50 (Coagulation factor XII): > 50 µM (inactive)
IC50 [8]: > 122 µM (inactive)
Structure (SMILES): CS(=O)(=O)c1nc(-c2ccc(Br)cc2)n[nH]1

Structure (SMILES): O=C(Nc1nnc(C2=COCCO2)o1)c1ccc(S(=O)(=O)N2CCCCC2)cc1
AC50 [9]: > 100 µM (inactive)

AC50 [10]: 11.5 µM (active)
Structure (SMILES): C[C@H](CO)N1C[C@H](C)[C@H](CN(C)C)Oc2ccc(NC(=O)Nc3ccc(F)cc3)cc2CC1=O

Structure (SMILES): COc1ccccc1C(=O)NC(=S)Nc1cccnc1Cl
EC50 [11]: > 67.5 µM (inactive)
EC50 (cells): > 67.5 µM (inactive)
